Data: ChEMBL document CHEMBL5321216, “Discovery of bipyridine amide derivatives targeting pRXRα-PLK1 interaction for anticancer therapy” (Eur J Med Chem, 2023)
The source made the active and inactive calls. The rule behind the calls is not given here.

Columns and labels:
[1] = test system: HeLa; assay: Inhibition of MYC tagged pRXRalpha-FLAG tagged PLK1 (unknown origin) protein-protein interaction transfected in human HeLa cells at 500 nM incubated for 3 hrs by co-immunoprecipitation assay; type: cell-based
[2] = test system: MDA-MB-231; assay: Induction of apoptosis in human MDA-MB-231 cells assessed as late apoptotic cells at 250 nM incubated for 24 hrs by annexin V-FITC/PI staining based flow cytometry analysis (reference value: 5.93%); type: functional
[3] = test system: MDA-MB-231; assay: Induction of apoptosis in human MDA-MB-231 cells assessed as dead cells at 31.25 nM incubated for 24 hrs by annexin V-FITC/PI staining based flow cytometry analysis (reference value: 0.69%); type: functional
[4] = test system: MDA-MB-231; assay: Antitumor activity against human MDA-MB-231 cells xenografted in BALB/c nude mouse assessed as inhibition of tumor growth by measuring mitotic arrest at 12.5 to 25 mg/kg/day, ip administered for 15 days; type: functional, organism-based; details: dose 12.5-25 mg/kg/day, time 15.0 day
[5] = Toxicity in BALB/c mouse xenografted with human MDA-MB-231 cells assessed as reduction in body weight at 12.5 to 25 mg/kg/day, ip administered for 15 days; type: organism-based; details: in vivo, 360 h, dose 12.5-25 mg/kg/day, time 15 day
[6] = test system: A549; assay: Induction of cell cycle arrest in human A549 cells assessed as accumulation of cells at G1 phase at 125 nM incubated for 12 hrs by flow cytometry analysis (reference value: 59.57%); type: functional
[7] = test system: MDA-MB-231; assay: Induction of apoptosis in human MDA-MB-231 cells assessed as early apoptotic cells at 125 nM incubated for 24 hrs by annexin V-FITC/PI staining based flow cytometry analysis (reference value: 2.03%); type: functional
[8] = test system: A549; assay: Induction of apoptosis in human A549 cells assessed as late apoptotic cells at 250 nM incubated for 24 hrs by annexin V-FITC/PI staining based flow cytometry analysis (reference value: 5.28%); type: functional
[9] = test system: MDA-MB-231; assay: Inhibition of colony formation in human MDA-MB-231 cells incubated for 48 hrs followed by replacement with normal culture medium and measured after […] by crystal violet staining based assay; type: functional, cell-based; details: dose 0.976-250 nM
[10] = test system: HepG2; assay: Antiproliferative activity against human HepG2 cells assessed as inhibition of cell proliferation incubated for 72 hrs by MTT assay; type: functional, cell-based; details: HepG2, 72 h
[11] = test system: A549; assay: Induction of cell cycle arrest in human A549 cells assessed as accumulation of cells at G1 phase at 31.25 nM incubated for 12 hrs by flow cytometry analysis (reference value: 59.57%); type: functional
[12] = test system: MDA-MB-231; assay: Induction of apoptosis in human MDA-MB-231 cells assessed as dead cells at 250 nM incubated for 24 hrs by annexin V-FITC/PI staining based flow cytometry analysis (reference value: 0.69%); type: functional
[13] = test system: A549; assay: Antiproliferative activity against wild type human A549 cells assessed as inhibition of cell growth incubated for 72 hrs by MTT assay; type: functional, cell-based; details: A549, 72 h
[14] = molecular target: T1, Retinoic acid receptor RXR-alpha (Homo sapiens, UniProt P19793); assay: Binding affinity to RXRalpha LBD (unknown origin) assessed as increase in response unit by measuring dissociation constant by SPR analysis
T1 sequence (P19793 whole entry): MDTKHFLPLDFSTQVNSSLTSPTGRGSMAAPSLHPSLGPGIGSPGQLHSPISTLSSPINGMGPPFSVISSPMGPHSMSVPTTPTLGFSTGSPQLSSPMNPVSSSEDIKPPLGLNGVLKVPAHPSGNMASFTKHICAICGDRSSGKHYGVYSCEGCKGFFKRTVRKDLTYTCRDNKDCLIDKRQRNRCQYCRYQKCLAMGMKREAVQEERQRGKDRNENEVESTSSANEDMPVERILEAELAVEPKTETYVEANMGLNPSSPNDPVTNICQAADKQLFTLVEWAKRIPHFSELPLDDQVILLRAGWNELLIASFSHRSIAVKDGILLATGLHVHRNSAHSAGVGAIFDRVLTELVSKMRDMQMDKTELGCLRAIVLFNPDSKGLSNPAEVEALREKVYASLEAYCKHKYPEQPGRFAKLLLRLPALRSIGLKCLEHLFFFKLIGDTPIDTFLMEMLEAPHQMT

[15] = Cmax in Sprague-Dawley rat at 25 mg/kg, ip measured for 48 hrs by LC-MS/MS analysis; type: ADME, organism-based; design: time 48 hrs, dose 25 mg/kg, route ip; details: in vivo
[16] = test system: A549; assay: Induction of apoptosis in human A549 cells assessed as late apoptotic cells at 62.5 nM incubated for 24 hrs by annexin V-FITC/PI staining based flow cytometry analysis (reference value: 5.28%); type: functional
[17] = test system: A549; assay: Induction of apoptosis in human A549 cells assessed as late apoptotic cells at 31.25 nM incubated for 24 hrs by annexin V-FITC/PI staining based flow cytometry analysis (reference value: 5.28%); type: functional
[18] = test system: HCC1937; assay: Antiproliferative activity against human HCC1937 cells assessed as inhibition of cell proliferation incubated for 72 hrs by MTT assay; type: functional, cell-based; details: HCC1937, 72 h
[19] = test system: A549; assay: Induction of apoptosis in human A549 cells assessed as live cells at 62.5 nM incubated for 24 hrs by annexin V-FITC/PI staining based flow cytometry analysis (reference value: 93.2%); type: functional
[20] = Selectivity index, ratio of IC50 for human A549 cells to IC50 for human MDA-MB-231 cells; type: functional
[21] = test system: A549; assay: Induction of cell cycle arrest in RXRalpha knockout human A549 cells assessed as accumulation of cells at G1 phase at 125 nM incubated for 12 hrs by DAPI staining based flow cytometry analysis (reference value: 52.29 %); type: functional
[22] = test system: MDA-MB-231; assay: Antiproliferative activity against human MDA-MB-231 cells assessed as cell viability rate at 5 uM incubated for 72 hrs by MTT assay relative to control; type: functional
[23] = Cytotoxicity against human HaCaT cells assessed as inhibition of cell proliferation incubated for 72 hrs by MTT assay; type: toxicity, cell-based
[24] = test system: MDA-MB-231; assay: Induction of apoptosis in human MDA-MB-231 cells assessed as reduction in Bcl-2 protein expression measured after 24 hrs by Western blot analysis; type: functional, cell-based; details: dose 7.8-500 nM
[25] = test system: A549; assay: Induction of cell cycle arrest in RXRalpha knockout human A549 cells assessed as accumulation of cells at S phase at 125 nM incubated for 12 hrs by DAPI staining based flow cytometry analysis (reference value: 32.74%); type: functional
[26] = test system: MDA-MB-231; assay: Induction of apoptosis in human MDA-MB-231 cells assessed as early apoptotic cells at 62.5 nM incubated for 24 hrs by annexin V-FITC/PI staining based flow cytometry analysis (reference value: 2.03%); type: functional
[27] = Drug absorption in KM mouse at 25 mg/kg, ip measured after 0.5 to 2 hrs; type: ADME, organism-based; details: in vivo, time 0.5-2 hrs
[28] = test system: HepG2; assay: Antiproliferative activity against human HepG2 cells assessed as cell viability rate at 5 uM incubated for 72 hrs by MTT assay relative to control; type: functional
[29] = Cytotoxicity against human L02 cells assessed as inhibition of cell proliferation incubated for 72 hrs by MTT assay; type: toxicity, cell-based
[30] = Cytotoxicity against human MCF-10A cells assessed as inhibition of cell proliferation incubated for 72 hrs by MTT assay; type: toxicity, cell-based

O=C(/C=C/c1ccccc1)Nc1cc(-c2ccnc(N3CCC(CO)CC3)c2)ccn1
inhibition [1]: Active | Activity [2]: 20.2% | Activity [3]: 0.93% | Activity [4]: Active | Activity [5]: Non-Toxic | Activity [6]: 16.45% | Activity [7]: 11.2% | Activity [8]: 21.4% | inhibition [9]: Dose-Dependent Effect | IC50 [10]: 128 nM | Activity [11]: 58.84% | Activity [12]: 1.67% | IC50 [13]: 196 nM | Kd [14]: 39.4 nM | Cmax [15]: 8080 ng/mL | Activity [16]: 18.2% | Activity [17]: 18.9% | IC50 [18]: 561 nM | Activity [19]: 67.7% | Ratio IC50 [20]: 12.56 | Activity [21]: 17.83% | Activity [22]: 31.72% | IC50 at 72 h [23]: 51 nM | Activity [24]: Dose-Dependent Effect | Activity [25]: 36.18% | Activity [26]: 13.1% | Drug absorption [27]: Active | Activity [28]: 42.38% | IC50 at 72 h [29]: 64 nM | IC50 at 72 h [30]: 18600 nM
